Assay results published in ChEMBL document CHEMBL1201862, “PubChem BioAssay data set” (2004).
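96-well plates; 48 h exposure; 5 concentrations. Endpoints by linear interpolation between flanking doses. Not reached: highest tested concentration assigned. GI50: concentration for 50% inhibition of growth.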 Active and inactive are the calls of the source. Rule as the data show it: active = GI50 up to about 1.1 µM and inactive = higher.

Tests used:
Assay in all cases: NCI tumour cell line growth inhibition, 48 h
[1] = system: LOX IMVI
[2] = system: HCC 2998
[3] = system: SW-620
[4] = system: SF-268
[5] = system: M14
[6] = system: KM-20L2
[7] = system: RPMI-8226
[8] = system: HT-29
[9] = system: KM12
[10] = system: TK-10
[11] = system: SK-MEL-28
[12] = system: LXFL 529
[13] = system: SNB-75
[14] = system: DMS-273
[15] = system: CAKI-1
[16] = system: UACC-62
[17] = system: A498
[18] = system: Malme-3M
[19] = system: SF-295
[20] = system: XF498
[21] = system: M19-MEL
[22] = system: NCI-H460
[23] = system: SF-539
[24] = system: IGROV-1
[25] = system: NCI-H23
[26] = system: SK-OV-3
[27] = system: NCI-H226
[28] = system: NCI-H522
[29] = system: SK-MEL-2
[30] = system: OVCAR-5
[31] = system: HOP-92
[32] = system: DMS-114
[33] = system: 786-0
[34] = system: DLD-1
[35] = system: HCT-15
[36] = system: K562
[37] = system: CCRF-CEM
[38] = system: UACC-257
[39] = system: HL-60
[40] = system: EKVX
[41] = system: OVCAR-3
[42] = system: RXF 393
[43] = system: OVCAR-8
[44] = system: A549
[45] = system: OVCAR-4
[46] = system: SNB-19
[47] = system: MOLT-4
[48] = system: COLO 205
[49] = system: HOP-62
[50] = system: SN12C
[51] = system: ACHN
[52] = system: UO-31
[53] = system: Hs-578T
[54] = system: MDA-MB-435
[55] = system: MDA-N
[56] = system: BT-549
[57] = system: T47D
[58] = system: DU-145
[59] = system: PC-3
[60] = system: SR
[61] = system: MDA-MB-231
[62] = system: SK-MEL-5
[63] = system: U-251
[64] = system: SNB-78
[65] = system: HCT-116
[66] = system: HOP-18

CCC(=O)CCC1=Nc2nnc(CCCCc3nnc4n3C(=O)C(CCC(=O)CC)=N4)n2C1=O
GI50 [1]: > 100 µM (inactive)
GI50 [2]: > 100 µM (inactive)
GI50 [3]: > 100 µM (inactive)
GI50 [4]: > 100 µM (inactive)
GI50 [5]: > 100 µM (inactive)
GI50 [6]: > 100 µM (inactive)
GI50 [7]: > 100 µM (inactive)
GI50 [8]: > 100 µM (inactive)
GI50 [9]: > 100 µM (inactive)
GI50 [10]: > 100 µM (inactive)
GI50 [11]: > 100 µM (inactive)
GI50 [12]: > 100 µM (inactive)
GI50 [13]: > 100 µM (inactive)
GI50 [14]: > 100 µM (inactive)
GI50 [15]: > 100 µM (inactive)
GI50 [16]: > 100 µM (inactive)
GI50 [17]: > 100 µM (inactive)
GI50 [18]: > 100 µM (inactive)
GI50 [19]: > 100 µM (inactive)
GI50 [20]: > 100 µM (inactive)
GI50 [21]: > 100 µM (inactive)
GI50 [22]: > 100 µM (inactive)
GI50 [23]: > 100 µM (inactive)
GI50 [24]: > 100 µM (inactive)
GI50 [25]: > 100 µM (inactive)
GI50 [26]: > 100 µM (inactive)
GI50 [27]: > 100 µM (inactive)
GI50 [28]: > 100 µM (inactive)
GI50 [29]: > 100 µM (inactive)
GI50 [30]: > 100 µM (inactive)
GI50 [31]: > 100 µM (inactive)
GI50 [32]: > 100 µM (inactive)
GI50 [33]: > 100 µM (inactive)
GI50 [34]: > 100 µM (inactive)
GI50 [35]: > 100 µM
GI50 [36]: > 100 µM (inactive)
GI50 [37]: > 100 µM (inactive)
GI50 [38]: > 100 µM (inactive)
GI50 [39]: > 100 µM (inactive)
GI50 [40]: > 100 µM (inactive)
GI50 [41]: > 100 µM (inactive)
GI50 [42]: > 100 µM (inactive)
GI50 [43]: > 100 µM (inactive)
GI50 [44]: > 100 µM (inactive)
GI50 [45]: > 100 µM (inactive)
GI50 [46]: > 100 µM (inactive)
GI50 [47]: > 100 µM (inactive)
GI50 [48]: > 100 µM (inactive)
GI50 [49]: > 100 µM (inactive)
GI50 [50]: > 100 µM (inactive)
GI50 [51]: > 100 µM (inactive)
GI50 [52]: > 100 µM (inactive)

CCC/C=C/C=C/C(=O)OC1/C(=C/C(=O)OC)CC2CC(C(C)O)OC(=O)CC(O)CC3CC(OC(C)=O)C(C)(C)C(O)(CC4C/C(=C/C(=O)OC)CC(/C=C/C(C)(C)C1(O)O2)O4)O3 (stereo unspecified)
GI50 [53]: 6.07 µM (inactive)
GI50 [4]: 6.95 µM (inactive)
GI50 [5]: > 11 µM (inactive)
GI50 [7]: 9.98 µM (inactive)
GI50 [10]: > 12.5 µM (inactive)
GI50 [11]: 9.98 µM (inactive)
GI50 [54]: 8.47 µM (inactive)
GI50 [14]: 10.6 µM (inactive)
GI50 [17]: 4.18 µM (inactive)
GI50 [55]: 7.53 µM (inactive)
GI50 [56]: 8.57 µM (inactive)
GI50 [20]: 3.62 µM (inactive)
GI50 [23]: > 12.5 µM (inactive)
GI50 [25]: 9.89 µM (inactive)
GI50 [27]: > 12.5 µM (inactive)
GI50 [28]: > 12.5 µM (inactive)
GI50 [30]: > 12.5 µM (inactive)
GI50 [33]: 6.25 µM (inactive)
GI50 [34]: > 10.9 µM (inactive)
GI50 [57]: 7.01 µM (inactive)
GI50 [58]: > 12.5 µM (inactive)
GI50 [46]: > 12.5 µM (inactive)
GI50 [59]: 5.32 µM (inactive)
GI50 [60]: > 12.5 µM (inactive)
GI50 [51]: 3.34 µM (inactive)
GI50 [61]: 6.22 µM (inactive)

Nc1ccc([C@H]2C(=O)N[C@H]3CCC[C@H]32)cc1
GI50 [1]: > 100 µM (inactive)
GI50 [3]: > 100 µM (inactive)
GI50 [4]: > 100 µM (inactive)
GI50 [5]: > 100 µM (inactive)
GI50 [62]: > 100 µM (inactive)
GI50 [7]: > 100 µM (inactive)
GI50 [8]: > 100 µM (inactive)
GI50 [9]: > 100 µM (inactive)
GI50 [10]: > 100 µM (inactive)
GI50 [11]: > 100 µM (inactive)
GI50 [13]: > 100 µM (inactive)
GI50 [14]: > 100 µM (inactive)
GI50 [15]: > 100 µM (inactive)
GI50 [16]: > 100 µM (inactive)
GI50 [19]: > 100 µM (inactive)
GI50 [20]: > 100 µM (inactive)
GI50 [21]: > 100 µM (inactive)
GI50 [23]: > 100 µM (inactive)
GI50 [24]: > 100 µM (inactive)
GI50 [25]: > 100 µM (inactive)
GI50 [26]: > 100 µM (inactive)
GI50 [27]: > 100 µM (inactive)
GI50 [28]: > 100 µM (inactive)
GI50 [32]: > 100 µM (inactive)
GI50 [35]: > 100 µM
GI50 [36]: > 100 µM (inactive)
GI50 [37]: > 100 µM (inactive)
GI50 [38]: > 100 µM (inactive)
GI50 [39]: > 100 µM (inactive)
GI50 [40]: > 100 µM (inactive)
GI50 [41]: > 100 µM (inactive)
GI50 [42]: > 100 µM (inactive)
GI50 [43]: > 100 µM (inactive)
GI50 [44]: > 100 µM (inactive)
GI50 [46]: > 100 µM (inactive)
GI50 [47]: > 100 µM (inactive)
GI50 [48]: > 100 µM (inactive)
GI50 [50]: > 100 µM (inactive)
GI50 [52]: > 100 µM (inactive)

CCCCc1c2c(nc3c1CC/C(=C\c1ccc([N+](=O)[O-])cc1)C3=O)CCCC2
GI50 [1]: 1.6 µM (inactive)
GI50 [2]: 1.78 µM (inactive)
GI50 [3]: 1.69 µM (inactive)
GI50 [4]: 1.98 µM (inactive)
GI50 [5]: 1.85 µM (inactive)
GI50 [6]: 2.01 µM (inactive)
GI50 [7]: 1.7 µM (inactive)
GI50 [8]: 1.33 µM (inactive)
GI50 [9]: 1.7 µM (inactive)
GI50 [10]: 1.66 µM (inactive)
GI50 [11]: 1.69 µM (inactive)
GI50 [12]: 1.37 µM (inactive)
GI50 [13]: 8.65 µM (inactive)
GI50 [14]: 1.76 µM (inactive)
GI50 [16]: 1.61 µM (inactive)
GI50 [18]: 2 µM (inactive)
GI50 [19]: 2.1 µM (inactive)
GI50 [21]: 2.29 µM (inactive)
GI50 [22]: 1.57 µM (inactive)
GI50 [23]: 1.79 µM (inactive)
GI50 [24]: 1.8 µM (inactive)
GI50 [26]: 2.15 µM (inactive)
GI50 [27]: 2.28 µM (inactive)
GI50 [63]: 1.59 µM (inactive)
GI50 [28]: 1.51 µM (inactive)
GI50 [32]: 2.1 µM (inactive)
GI50 [33]: 1.43 µM (inactive)
GI50 [34]: 1.75 µM (inactive)
GI50 [35]: 0.312 µM
GI50 [36]: 2.17 µM (inactive)
GI50 [37]: 1.46 µM (inactive)
GI50 [38]: 2.3 µM (inactive)
GI50 [40]: 11.4 µM (inactive)
GI50 [41]: 1.76 µM (inactive)
GI50 [42]: 1.3 µM (inactive)
GI50 [43]: 1.88 µM (inactive)
GI50 [44]: 4.41 µM (inactive)
GI50 [46]: 1.87 µM (inactive)
GI50 [64]: 1.96 µM (inactive)
GI50 [47]: 1.77 µM (inactive)
GI50 [48]: 2.81 µM (inactive)
GI50 [49]: 1.73 µM (inactive)
GI50 [65]: 1.8 µM (inactive)
GI50 [60]: 2.86 µM (inactive)
GI50 [50]: 1.88 µM (inactive)
GI50 [51]: 1.78 µM (inactive)
GI50 [52]: 2.13 µM (inactive)

CC(=O)Oc1cc(OC(C)=O)c2c(c1)OC(c1ccc(OC(C)=O)c(OC(C)=O)c1)CC2=O (stereo unspecified)
GI50 [66]: 30.1 µM (inactive)
GI50 [2]: > 100 µM (inactive)
GI50 [3]: 47.5 µM (inactive)
GI50 [62]: 55.3 µM (inactive)
GI50 [10]: 49.9 µM (inactive)
GI50 [14]: 50.6 µM (inactive)
GI50 [19]: 41.6 µM (inactive)
GI50 [26]: 71.9 µM (inactive)
GI50 [31]: 29.8 µM (inactive)
GI50 [37]: 20.4 µM (inactive)
GI50 [39]: 0.458 µM (active)
GI50 [44]: 43.9 µM (inactive)
GI50 [48]: 63.1 µM (inactive)
GI50 [65]: 63.7 µM (inactive)
GI50 [60]: 14.7 µM (inactive)
GI50 [50]: 0.0446 µM (active)
GI50 [52]: 38.9 µM (inactive)
